The values that follow come from patent US20250353891A1 (MEDIMMUNE LIMITED, priority 2022, published 2025).

For the assay, the target named is human GLP-1 receptor (hGLP-1R) (Homo sapiens, UniProt P43220). The assay is described as follows: cAMP production (HTRF) in CHO cells expressing hGLP-1R. The format is cell-based. Further details: expressed in transfected cells. As to conditions: for EC50: Table 6, peptides modified at position 17, cAMP in CHO hGLP-1R cells, geometric mean, read-out: hGLP-1R EC50; for % Relative Potency Ratio: Table 6, % GLP-1R activity relative to GLP-1 / % GlucR activity relative to glucagon. The method, then:
Cells were re-suspended in assay buffer at a batch-dependent optimized concentration (typically hGLP-1R cells at 1×10^5 cells/mL, hGCGR cells at 2×10^5 cells/mL).
Cells were added to the assay plate using a multidrop dispenser and incubated at room temperature for 30 minutes before measuring the cAMP level using a cAMP dynamic 2 homogeneous time resolved Fluorescence (HTRF) kit (Cisbio Bioassays #62AM4PEJ) following the two-step protocol as per manufacturer's recommendations. In brief, anti-cAMP cryptate (donor fluorophore) and cAMP-d2 (acceptor fluorophore) were made up separately by diluting each 1 in 20 in conjugate and lysis buffer provided in the kit. Anti-CAMP cryptate was added to all wells of the assay plate, followed by cAMP-d2 added to all wells except non-specific binding (NSB) wells (to which conjugate and lysis buffer was added).
Data was transformed to % Delta F as described in the manufacturer's guidelines and analyzed by 4-parameter logistic fit to determine EC50 values.

Starred links: 1 amine or outer side, 2 acyl side, 3 side chain; linkers in the order of their positions; H or OH if unused. Non-standard residues stand in square brackets, D forms with d. Residues, ends and D or L forms follow the SMILES beside them. Groups on a side chain read outwards from the residue. *: point of attachment. C18 diacid = O=C(O)CCCCCCCCCCCCCCCCC(=O)*; γGlu = O=C(O)[C@H](CCC(=O)[*:2])N[*:1]; αMeF = C[C@](N)(Cc1ccccc1)C(=O)O; Myristoyl = CCCCCCCCCCCCCC(=O)*; PEG2 = NCCOCCOCCC(=O)O; AEEA = NCCOCCOCC(=O)O; Aib = CC(C)(N)C(=O)O

Sequence of human GLP-1 receptor (hGLP-1R) (P43220 24-463): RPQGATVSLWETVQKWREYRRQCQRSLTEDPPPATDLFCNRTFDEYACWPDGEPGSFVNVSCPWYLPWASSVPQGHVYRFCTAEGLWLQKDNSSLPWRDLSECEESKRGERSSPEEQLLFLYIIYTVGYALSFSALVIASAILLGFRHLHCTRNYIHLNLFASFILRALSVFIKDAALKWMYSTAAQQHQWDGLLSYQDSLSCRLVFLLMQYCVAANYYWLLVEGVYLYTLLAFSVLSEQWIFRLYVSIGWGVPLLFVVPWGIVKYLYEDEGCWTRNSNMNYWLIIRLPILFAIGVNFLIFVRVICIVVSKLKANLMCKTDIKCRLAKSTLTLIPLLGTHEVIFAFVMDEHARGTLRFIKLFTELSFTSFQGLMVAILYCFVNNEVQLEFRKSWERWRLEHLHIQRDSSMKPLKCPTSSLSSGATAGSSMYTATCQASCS

As usually defined, the EC50 is the concentration that produces a half-maximal response. On to `CC(C)C[C@H](NC(=O)[C@H](CC(C)C)NC(=O)[C@H](Cc1c[nH]c2ccccc12)NC(=O)[C@H](CCCNC(=N)N)NC(=O)[C@@H](NC(=O)[C@H](Cc1ccccc1)NC(=O)[C@H](CC(=O)O)NC(=O)[C@H](CCC(N)=O)NC(=O)[C@H](C)NC(=O)[C@H](CCCNC(=N)N)NC(=O)[C@H](CCCCNC(=O)COCCOCCNC(=O)COCCOCCNC(=O)CC[C@H](NC(=O)CCCCCCCCCCCCCCCCC(=O)O)C(=O)O)NC(=O)[C@H](CCCNC(=N)N)NC(=O)[C@H](CC(=O)O)NC(=O)[C@H](CC(C)C)NC(=O)[C@](C)(Cc1ccccc1)NC(=O)[C@H](CCCCN)NC(=O)[C@H](CO)NC(=O)[C@@H](NC(=O)[C@H](CC(=O)O)NC(=O)[C@H](CO)NC(=O)[C@@H](NC(=O)[C@H](Cc1ccccc1)NC(=O)[C@@H](NC(=O)CNC(=O)[C@H](CCC(N)=O)NC(=O)C(C)(C)NC(=O)[C@@H](N)Cc1c[nH]cn1)[C@@H](C)O)[C@@H](C)O)C(C)C)C(C)C)C(=O)N[C@@H](C)C(=O)N[C@@H](CCC(=O)O)C(N)=O` [Peptide 461] (H-H[Aib]QGTFTSDVSK[αMeF]LDRK([AEEA-AEEA-γGlu-C18 diacid])RAQDFVRWLLAE-NH2; N-terminus assumed), for which the 50% effective concentration (EC50) was 167 pM.

For `CC(C)C[C@H](NC(=O)[C@H](Cc1c[nH]c2ccccc12)NC(=O)[C@H](CCCNC(=N)N)NC(=O)[C@@H](NC(=O)[C@H](Cc1ccccc1)NC(=O)[C@H](CC(=O)O)NC(=O)[C@H](CCCNC(=N)N)NC(=O)[C@H](C)NC(=O)[C@H](CCCNC(=N)N)NC(=O)[C@H](CCCCNC(=O)CC[C@H](NC(=O)CC[C@H](NC(=O)COCCOCCNC(=O)COCCOCCNC(=O)CC[C@H](NC(=O)CC[C@H](NC(=O)CCCCCCCCCCCCCCCCC(=O)O)C(=O)O)C(=O)O)C(=O)O)C(=O)O)NC(=O)[C@H](CO)NC(=O)[C@H](CC(=O)O)NC(=O)[C@H](CC(C)C)NC(=O)[C@](C)(Cc1ccccc1)NC(=O)[C@H](CCCCN)NC(=O)[C@H](CO)NC(=O)[C@@H](NC(=O)[C@H](CC(=O)O)NC(=O)[C@H](CO)NC(=O)[C@@H](NC(=O)[C@H](Cc1ccccc1)NC(=O)[C@@H](NC(=O)CNC(=O)[C@H](CCC(N)=O)NC(=O)C(C)(C)NC(=O)[C@@H](N)Cc1c[nH]cn1)[C@@H](C)O)[C@@H](C)O)C(C)C)C(C)C)C(=O)N[C@@H](CC(C)C)C(=O)N[C@@H](CCC(=O)O)C(=O)NC(C)(C)C(=O)NCC(=O)O` [Peptide 136] (H-H[Aib]QGTFTSDVSK[αMeF]LDSK([γGlu-γGlu-AEEA-AEEA-γGlu-γGlu-C18 diacid])RARDFVRWLLE[Aib]G-OH; N-terminus assumed), the “% Relative Potency Ratio” value amounted to 22.3.

For `CCCCCCCCCCCCCC(=O)N[C@@H](CCC(=O)NCCOCCOCCC(=O)NCCOCCOCCC(=O)NCCCC[C@H](NC(=O)[C@H](CO)NC(=O)[C@H](CC(=O)O)NC(=O)[C@H](CC(C)C)NC(=O)[C@@H](NC(=O)[C@H](CCCCN)NC(=O)[C@H](CO)NC(=O)[C@@H](NC(=O)[C@H](CC(=O)O)NC(=O)[C@H](CO)NC(=O)[C@@H](NC(=O)[C@](C)(Cc1ccccc1)NC(=O)[C@H](CO)NC(=O)CNC(=O)[C@H](CCC(N)=O)NC(=O)[C@H](CO)NC(=O)[C@@H](N)Cc1c[nH]cn1)[C@@H](C)O)C(C)C)[C@@H](C)CC)C(=O)N[C@@H](C)C(=O)N[C@@H](C)C(=O)N[C@@H](CCC(N)=O)C(=O)N[C@@H](CC(=O)O)C(=O)N[C@@](C)(Cc1ccccc1)C(=O)N[C@H](C(=O)N[C@@H](CCC(N)=O)C(=O)NC(C)(C)C(=O)N[C@H](C(=O)N[C@H](C(=O)N[C@@H](CC(N)=O)C(=O)N[C@H](C(N)=O)[C@@H](C)O)[C@@H](C)CC)[C@@H](C)CC)C(C)C)C(=O)O` [Peptide 122] (H-HSQGS[αMeF]TSDVSKILDSK([PEG2-PEG2-γGlu-Myristoyl])AAQD[αMeF]VQ[Aib]IINT-NH2; N-terminus assumed), the EC50 was 1.42 pM and the “% Relative Potency Ratio” value stood at 1.2.
